Data set [1] relates to cultivar Borlotto of Vigevano bean plants. In kind it is in vivo, bean plant. Also noted: key: 100 = healthy plant, 0 = completely necrotic/decoloured. As to the method:
After 7 days in a conditioned environment, the intensity of the necrosis or leaf decolouring is evaluated with an evaluation scale from 100 (healthy plant) to 0 (plant completely infected with necrosis or decoloured).

Data set [2] relates to Plasmopara viticola. As to conditions: in vivo. As to the method:
After remaining 7 days in a conditioned environment, the plants were infected on the lower side with an aqueous suspension of Plasmorpara viticola spores (200,000 spores per cm^3).
The plants were kept in a humidity saturated environment, at 21° C., for the incubation period of the fungus and, at the end of this period (7 days), the fungicidal activity is evaluated according to an evaluation percentage scale from 100 (healthy plant) to 0 (completely infected plant).
E is the expected fungicidal activity, in the absence of synergetic effects, from a blend obtained by mixing g.x of the compound X with g.y of the compound Y;
x is the activity of compound X when used alone at a dose of g.x;
y is the activity of compound Y when used alone at a dose of g.y.
When the fungicidal activity found experimentally is greater than the value of E, said activity should be considered as being a synergetic effect.

Data set [3] relates to Peronospora tabacina. Briefly: Control of Peronospora Tabacina on tobacco in preventive leaf application (greenhouse test). Format: in vivo. The procedure: After remaining 7 days in a conditioned environment, the plants were infected on the lower side with an aqueous suspension of Peronospora Tabacina spores (200,000 spores per cm^3).
After remaining 24 hours in a humidity saturated environment, at 21° C., the plants were transferred to another conditioned environment for the incubation period of the fungus and, at the end of this period (7 days), the fungicidal activity is evaluated according to an evaluation percentage scale from 100 (healthy plant) to 0 (completely infected plant).

Data set [4] deals with cultivar Merlot vines. In words: Undesired effects (necrosis or leaf decolouring) on vines in the Plasmopara viticola greenhouse test. As to conditions: in vivo.
Description: Leaves of cultivar Merlot vines, grown in vases, in a conditioned environment (20±1° C., 70% relative humidity), were treated by spraying both sides of the leaves with the blends in question dispersed in an aqueous solution containing 0.3% of tween 20.
In data set [5] the test system is cultivar Burley tobacco plants. As to conditions: in vivo. The procedure: Leaves of cultivar Burley tobacco plants, grown in vases, in a conditioned environment (20±1° C., 70% relative humidity), were treated by spraying both sides of the leaves with the blends in question dispersed in an aqueous solution containing 0.3% of tween 20.
Undesired effects refer to the appearance of necrosis or leaf decolouring.

Setting [6] is: 125 ppm of each component, 7 days after leaf spraying, bean plant.

Read-outs that look alike come from different tables or passages of the source.

In data set [1] (setting [6]), `CC(N)CC(=O)O` (stereo not drawn) [BABA, β-aminobutyric acid, reference compound] returned a Leaf decolouring of 15 and a Leaf necrosis of 30.
On to `[Cu+2].[OH-].[OH-]` [Cu hydroxide, cuprum hydroxyde], for which the “Activity (y)” value in data set [2] came to 34.
Same read-out and setting: the value for `[Cl-].[Cu+2].[Cu+2].[OH-].[OH-].[OH-]` [Cu oxychloride, cuprum oxychloride] was 18.
Take `O=S(=O)([O-])[O-].[Cu+2]` [CuSO4, copper sulphate]: the entries for the “Activity (y)” value in data set [2] and in data set [3] (in vivo) were 48 and 45, respectively.
In the case of `O=C(O)c1ccccc1[O-].O=C(O)c1ccccc1[O-].[Cu+2]` [Cu^2+ SA, copper (II) salt of salicylic acid], in data set [1] (in vivo), the Leaf decolouring is 5 and the Leaf necrosis was found to be 55.
In data set [1] (in vivo), `O=C(O)c1ccccc1[O-].O=C(O)c1ccccc1[O-].[Cu+2]` [Cu^2+SA2, copper (II) salt of salicylic acid] had a Leaf decolouring of 5 and a Leaf necrosis of 42.
On to `O=c1ccc2ccccc2o1` [Cumarine], for which the “Activity (y)” value in data set [2] stood at 10.
Still for that read-out and setting: in the case of `O=c1ccc2cc(O[C@@H]3O[C@H](CO)[C@@H](O)[C@H](O)[C@H]3O)c(O)cc2o1` [Esculine, esculin] it was 10; in that of `O=C([O-])[C@H](O)[C@@H](O)[C@H](O)[C@H](O)CO.O=C([O-])[C@H](O)[C@@H](O)[C@H](O)[C@H](O)CO.[Fe+2]` [Fe (II) gluconate], 28; in that of `[Fe+2].c1ccc2c(c1)-c1nc-2nc2[n-]c(nc3nc(nc4[n-]c(n1)c1ccccc41)-c1ccccc1-3)c1ccccc21` [Fe (II) phthalocyanine, iron phthalocyanine], 14.
Consider `O=S(=O)([O-])[O-].[Fe+2]` [FeSO4, iron sulphate], for which the results for the “Activity (y)” value in data set [2] and in data set [3] (in vivo) were 40 and 15, respectively.
For the compound `O=C(O)c1cc(Cl)nc(Cl)c1` [INA, 2,6-dichloroisonicotinic acid, reference compound], in data set [1] (setting [6]), the Leaf decolouring was 10 and the Leaf necrosis is recorded as 50.
Turning to `[C-]#N.[C-]#N.[C-]#N.[C-]#N.[C-]#N.[C-]#N.[C-]#N.[C-]#N.[C-]#N.[C-]#N.[C-]#N.[C-]#N.[C-]#N.[C-]#N.[C-]#N.[C-]#N.[C-]#N.[C-]#N.[Fe+2].[Fe+2].[Fe+2].[Fe+3].[Fe+3].[Fe+3].[Fe+3]` [Prussian blue], the “Activity (y)” value in data set [2] worked out at 13.
Take `O=C1NS(=O)(=O)c2ccccc21` [Saccharin, saccharin]: the “Activity (y)” value in data set [2] worked out at 30.
Consider `[Cl-].[Cl-].[Cu+2].[Cu+2].[Cu+2].[Cu+2].[OH-].[OH-].[OH-].[OH-].[OH-].[OH-]` [Tetracopper oxychloride], for which the “Activity (y)” value in data set [2] stood at 28.
Take `[O]=[Zn]` [ZnO, zinc oxide]: the “Activity (y)” value in data set [2] was 30; in data set [3] (in vivo), 15.
Turning to `O=S(=O)([O-])[O-].[Zn+2]` [ZnSO4, zinc sulphate], the “Activity (y)” value is 22 in data set [2] and 20 in data set [3] (in vivo).
For the compound Fe(III) glutamate, the “Activity (y)” value in data set [2] is reported as 16.
Still for that read-out and setting: the value for FeNH4SO4 was 18.
For “copper phthalocyanine [Cu (II) Phthalocyanine]”, the “Activity (y)” value in data set [2] is listed as 10. The “Undesired effects” value in data set [4] stood at 0.
With silicic acid, in data set [2], the “Activity (y)” value came out at 14.
In turn, titanium dioxide [TiO2] displayed an Undesired effects in data set [5] of 0. Besides, the “Activity (y)” value in data set [2] is recorded as 24; in data set [3] (Table 5, compound alone at dose g.y ppm Equivalent Metal: TiO2 24, FeSO4 28, ZnSO4 33, CuSO4 32, ZnO 33), 5.

The values above are taken from US8703750B2, “Mixtures and methods for the induction of resistance in plants” (priority 2004, dated 2014).
